Test results as given in the supplement of paper PMC10307832.

Tests used:
Assay in all cases: relative viability (nuclei count vs DMSO), 5 days (fraction); higher = more cells survive
[1] = compound: CCN(CCO)CCCC(C)Nc1ccnc2cc(Cl)ccc12 [Hydroxychloroquine] + N=C(N)NC(=N)NCCc1ccccc1 [Phenformin] (partner 250 µM)
How it was run: (§1)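 Lung cancer cell lines in 1536-well plates were dosed by pin tool the day after seeding, either with one drug alone or with a fixed anchor-drug dose plus five library-drug doses (not always all listed) in √10 steps. After 5 days, cells were fixed and their nuclei stained in one step (final 0.05% Triton X-100, 1% formaldehyde, 1 ug/ml Hoechst), then counted on 4× images. Relative viability is the nuclei count in treated wells divided by that in vehicle wells. Values are medians of duplicate plates.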

[2] = compound: CCN(CCO)CCCC(C)Nc1ccnc2cc(Cl)ccc12 [Hydroxychloroquine] + Nc1nc2[nH]cc(CCc3ccc(C(=O)N[C@@H](CCC(=O)O)C(=O)O)cc3)c2c(=O)[nH]1 [Pemetrexed] (partner 0.2 µM)
How it was run: as §1

[3] = compound: CCN(CCO)CCCC(C)Nc1ccnc2cc(Cl)ccc12 [Hydroxychloroquine] + Cc1nc(Nc2ncc(C(=O)Nc3c(C)cccc3Cl)s2)cc(N2CCN(CCO)CC2)n1 [Dasatinib] (partner 0.075 µM)
How it was run: as §1

[4] = compound: CCN(CCO)CCCC(C)Nc1ccnc2cc(Cl)ccc12 [Hydroxychloroquine] + Cc1cc(Nc2cc(N3CCN(C)CC3)nc(Sc3ccc(NC(=O)C4CC4)cc3)n2)n[nH]1 [Tozasertib] (partner 0.1 µM)
How it was run: as §1

[5] = compound: CCN(CCO)CCCC(C)Nc1ccnc2cc(Cl)ccc12 [Hydroxychloroquine] + O=C(CCCCCCC(=O)Nc1ccccc1)NO [Vorinostat] (partner 1 µM)
How it was run: as §1

[6] = compound: CCN(CCO)CCCC(C)Nc1ccnc2cc(Cl)ccc12 [Hydroxychloroquine] + O=C(c1cc(Cc2n[nH]c(=O)c3ccccc23)ccc1F)N1CCN(C(=O)C2CC2)CC1 [Olaparib] (partner 8 µM)
How it was run: as §1

[7] = compound: CCN(CCO)CCCC(C)Nc1ccnc2cc(Cl)ccc12 [Hydroxychloroquine] + COc1cc2c(Oc3ccc(NC(=O)C4(C(=O)Nc5ccc(F)cc5)CC4)cc3F)ccnc2cc1OCCCN1CCOCC1 [Foretinib] (partner 0.25 µM)
How it was run: as §1

[8] = compound: CCN(CCO)CCCC(C)Nc1ccnc2cc(Cl)ccc12 [Hydroxychloroquine] + CC(=O)c1c(C)c2cnc(Nc3ccc(N4CCNCC4)cn3)nc2n(C2CCCC2)c1=O [Palbociclib] (partner 0.5 µM)
How it was run: as §1

[9] = compound: CCN(CCO)CCCC(C)Nc1ccnc2cc(Cl)ccc12 [Hydroxychloroquine] + COc1cccc2cc(-c3nc([C@H]4CC[C@H](C(=O)O)CC4)n4ncnc(N)c34)[nH]c12 [OSI-027] (partner 0.5 µM)
How it was run: as §1

[10] = compound: CCN(CCO)CCCC(C)Nc1ccnc2cc(Cl)ccc12 [Hydroxychloroquine] + CCNC(=O)c1noc(-c2cc(C(C)C)c(O)cc2O)c1-c1ccc(CN2CCOCC2)cc1 [Luminespib] (partner 0.01 µM)
How it was run: as §1

[11] = compound: CCN(CCO)CCCC(C)Nc1ccnc2cc(Cl)ccc12 [Hydroxychloroquine] + NC(=O)Nc1cc(-c2cccc(F)c2)sc1C(=O)N[C@H]1CCCNC1 [AZD7762] (partner 0.2 µM)
How it was run: as §1

[12] = compound: CCN(CCO)CCCC(C)Nc1ccnc2cc(Cl)ccc12 [Hydroxychloroquine] + CC(=O)Nc1cccc(-n2c(=O)n(C3CC3)c(=O)c3c(Nc4ccc(I)cc4F)n(C)c(=O)c(C)c32)c1 [Trametinib] (partner 0.02 µM)
How it was run: as §1

[13] = compound: CCN(CCO)CCCC(C)Nc1ccnc2cc(Cl)ccc12 [Hydroxychloroquine] + Nc1ncn([C@H]2C[C@H](O)[C@@H](CO)O2)c(=O)n1 [Decitabine] (partner 2 µM)
How it was run: as §1

Hydroxychloroquine = compound: CCN(CCO)CCCC(C)Nc1ccnc2cc(Cl)ccc12 [Hydroxychloroquine]
How it was run: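 A plate was accepted only when its control CV was below 25% and the cells had doubled at least once. Viability is defined from nuclear counts as treated wells divided by vehicle wells, with the median taken across plates. That median covers lung cancer cell lines grown in 1536-well plates, dosed by pinning at five √10-spaced library-drug concentrations, and counted in MetaXpress from 4× Hoechst images after 5 days.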

SW 900
relative viability ([1]; first compound 0.5 µM): 0.514
relative viability ([1]; first compound 1.581 µM): 0.496
relative viability ([1]; first compound 5 µM): 0.509
relative viability ([1]; first compound 15.81 µM): 0.585
relative viability ([1]; first compound 50 µM): 0.513
relative viability ([2]; first compound 0.5 µM): 0.43
relative viability ([2]; first compound 1.581 µM): 0.47
relative viability ([2]; first compound 5 µM): 0.448
relative viability ([2]; first compound 15.81 µM): 0.457
relative viability ([2]; first compound 50 µM): 0.444
relative viability ([3]; first compound 0.5 µM): 0.586
relative viability ([3]; first compound 1.581 µM): 0.574
relative viability ([3]; first compound 5 µM): 0.671
relative viability ([3]; first compound 15.81 µM): 0.528
relative viability ([3]; first compound 50 µM): 0.559
relative viability ([4]; first compound 0.5 µM): 0.517
relative viability ([4]; first compound 1.581 µM): 0.531
relative viability ([4]; first compound 5 µM): 0.548
relative viability ([4]; first compound 15.81 µM): 0.74
relative viability ([4]; first compound 50 µM): 0.572
relative viability ([5]; first compound 0.5 µM): 0.532
relative viability ([5]; first compound 1.581 µM): 0.535
relative viability ([5]; first compound 5 µM): 0.504
relative viability ([5]; first compound 15.81 µM): 0.382
relative viability ([5]; first compound 50 µM): 0.505
relative viability ([6]; first compound 0.5 µM): 0.894
relative viability ([6]; first compound 1.581 µM): 0.852
relative viability ([6]; first compound 5 µM): 0.88
relative viability ([6]; first compound 15.81 µM): 0.819
relative viability ([6]; first compound 50 µM): 0.75
relative viability ([7]; first compound 0.5 µM): 0.941
relative viability ([7]; first compound 1.581 µM): 0.824
relative viability ([7]; first compound 5 µM): 0.866
relative viability ([7]; first compound 15.81 µM): 0.816
relative viability ([7]; first compound 50 µM): 0.869
relative viability ([8]; first compound 0.5 µM): 0.5
relative viability ([8]; first compound 1.581 µM): 0.502
relative viability ([8]; first compound 5 µM): 0.568
relative viability ([8]; first compound 15.81 µM): 0.597
relative viability ([8]; first compound 50 µM): 0.657
relative viability ([9]; first compound 0.5 µM): 0.491
relative viability ([9]; first compound 1.581 µM): 0.664
relative viability ([9]; first compound 5 µM): 0.482
relative viability ([9]; first compound 15.81 µM): 0.547
relative viability ([9]; first compound 50 µM): 0.505
relative viability ([10]; first compound 0.5 µM): 0.156
relative viability ([10]; first compound 1.581 µM): 0.176
relative viability ([10]; first compound 5 µM): 0.195
relative viability ([10]; first compound 15.81 µM): 0.17
relative viability ([10]; first compound 50 µM): 0.177
relative viability ([11]; first compound 0.5 µM): 0.678
relative viability ([11]; first compound 1.581 µM): 0.681
relative viability ([11]; first compound 5 µM): 0.679
relative viability ([11]; first compound 15.81 µM): 0.748
relative viability ([11]; first compound 50 µM): 0.594
relative viability ([12]; first compound 0.5 µM): 0.761
relative viability ([12]; first compound 1.581 µM): 1.01
relative viability ([12]; first compound 5 µM): 0.779
relative viability ([12]; first compound 15.81 µM): 0.879
relative viability ([12]; first compound 50 µM): 0.806
relative viability ([13]; first compound 0.5 µM): 0.398
relative viability ([13]; first compound 1.581 µM): 0.445
relative viability ([13]; first compound 5 µM): 0.422
relative viability ([13]; first compound 15.81 µM): 0.417
relative viability ([13]; first compound 50 µM): 0.41
relative viability (Hydroxychloroquine; 0.5 µM): 0.879
relative viability (Hydroxychloroquine; 1.581 µM): 0.729
relative viability (Hydroxychloroquine; 5 µM): 0.837
relative viability (Hydroxychloroquine; 15.81 µM): 0.717
relative viability (Hydroxychloroquine; 50 µM): 0.889
